Source: patent US11191761B2, “SOMCL-9112 solid dispersion and preparation method thereof and SOMCL-9112 solid preparation containing SOMCL-9112 solid dispersion” (SHANGHAI INSTITUTE OF MATERIA MEDICA, CHINESE ACADEMY OF …, priority 2015, dated 2021)
≈ marks a conversion by molar mass, not a printed value.

How the values were obtained:
[1] = Permeability test using Caco-2 cell model; settings: human
Method: (§1) Permeability Test: The permeability of SOMCL-9112 was evaluated using Caco-2 cell model.

P-gp = assay: Permeability test using Caco-2 cell model; settings: human
Method: as §1

[2] = target: poly-ADP-ribose polymerase (PARP) (Homo sapiens, UniProt P09874); settings: in words, no data shown; cited from earlier work
[3] = Solubility of SOMCL-9112 API and solid dispersions in water and buffers (37° C., shaking); assay type: physicochemical; settings: for solubility at 8 h: 37 °C, thermodynamic from solid
Method: The SOMCL-9112 solid dispersion prepared in this Example and the SOMCL-9112 API powder were dissolved in water, simulated gastric fluid (pH 1.2), phosphate buffer (pH 4.5) and simulated intestinal fluid (pH6.8) to measure the solubility of SOMCL-9112 (37° C., shaking at 100 rpm for 8 h). The solid dispersion was sampled at 4 h and 8 h.
The SOMCL-9112 solid dispersion prepared in this example was dissolved in water, simulated gastric fluid (pH 1.2), phosphate buffer (pH 4.5) and simulated intestinal fluid (pH6.8) to measure the solubility of SOMCL-9112 (37° C., shaking at 100 rpm for 8 h).
The SOMCL-9112 solid dispersion prepared in this example was dissolved in a simulated intestinal fluid (pH6.8) to measure the solubility of SOMCL-9112 (37° C., shaking at 100 rpm for 8 h).

Caco-2 cell model = assay: in vitro
Method: as §1

[4] = Equilibrium solubility test (24 h, HPLC); assay type: physicochemical; settings: thermodynamic from solid; for solubility thermodynamic at 24 h: 37° C., 100 rpm
Method: Equilibrium Solubility Test: The solubility of SOMCL9112 in a series of solvents was investigated. The main solvents included water, pH 1.2 simulated gastric fluid, pH 4.5 phosphate buffer, and pH 6.8 simulated intestinal fluid. 0.5 g of SOMCL-9112 API was taken and added to 100 ml of each of the above solvents. The mixture was shaken at 37° C. shaker at 100 rpm for 24 h. The supernatant was centrifuged at 8000 rpm for 15 min and the concentration of SOMCL-9112 was determined by HPLC.

Sequence of poly-ADP-ribose polymerase (PARP) (P09874 whole entry): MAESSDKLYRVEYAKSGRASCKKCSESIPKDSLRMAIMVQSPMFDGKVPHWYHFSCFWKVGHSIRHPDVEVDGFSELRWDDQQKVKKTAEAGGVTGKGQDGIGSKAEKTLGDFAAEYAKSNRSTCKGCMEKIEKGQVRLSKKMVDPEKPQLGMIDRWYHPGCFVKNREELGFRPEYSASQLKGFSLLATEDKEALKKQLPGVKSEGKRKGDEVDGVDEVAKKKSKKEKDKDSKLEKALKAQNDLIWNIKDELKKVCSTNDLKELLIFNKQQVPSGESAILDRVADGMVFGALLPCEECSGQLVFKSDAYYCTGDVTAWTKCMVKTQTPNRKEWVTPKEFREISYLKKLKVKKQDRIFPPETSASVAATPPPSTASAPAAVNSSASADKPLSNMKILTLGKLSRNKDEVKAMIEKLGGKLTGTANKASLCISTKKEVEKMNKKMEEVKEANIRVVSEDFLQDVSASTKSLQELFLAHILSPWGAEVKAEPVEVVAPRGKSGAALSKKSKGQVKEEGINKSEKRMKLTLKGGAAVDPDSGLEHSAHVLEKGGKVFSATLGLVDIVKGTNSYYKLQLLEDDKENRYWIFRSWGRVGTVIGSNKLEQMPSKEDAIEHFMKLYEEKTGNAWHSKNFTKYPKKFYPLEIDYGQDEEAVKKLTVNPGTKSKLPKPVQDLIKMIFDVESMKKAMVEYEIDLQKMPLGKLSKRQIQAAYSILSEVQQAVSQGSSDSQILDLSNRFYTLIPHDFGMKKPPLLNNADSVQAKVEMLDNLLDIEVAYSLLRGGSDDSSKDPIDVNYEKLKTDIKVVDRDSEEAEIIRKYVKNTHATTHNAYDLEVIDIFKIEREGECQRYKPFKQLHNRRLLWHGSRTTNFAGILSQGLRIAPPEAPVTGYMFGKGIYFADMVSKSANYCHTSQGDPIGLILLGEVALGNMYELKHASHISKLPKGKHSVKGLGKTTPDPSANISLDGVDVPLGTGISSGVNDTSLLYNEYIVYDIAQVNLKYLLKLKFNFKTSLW

SMILES: C[C@H]1O[C@@H](O[C@H]2[C@@H](O)C[C@H](O[C@H]3[C@@H](O)C[C@H](O[C@H]4CC[C@@]5(C)[C@H](CC[C@@H]6[C@@H]5C[C@@H](O)[C@]5(C)[C@@H](C7=CC(=O)OC7)CC[C@]65O)C4)O[C@@H]3C)O[C@@H]2C)C[C@H](O)[C@@H]1O [Digoxin, reference compound]
- Papp A→B [1]: 0.09 ± 0.01 ×10⁻⁶ cm/s
- Papp B→A [1]: 9.88 ± 1.41 ×10⁻⁶ cm/s
- efflux ratio (P-gp): 109

SMILES: CC(C)NCC(O)COc1cccc2ccccc12 (stereo not drawn) [Propranolol, reference compound]
- Papp A→B [1]: 10.5 ± 1.97 ×10⁻⁶ cm/s
- Papp B→A [1]: 7.57 ± 0.6 ×10⁻⁶ cm/s
- efflux ratio (P-gp): 0.72

SMILES: CC1CN(C(=O)c2cc(Cc3n[nH]c(=O)c4ccccc34)ccc2F)Cc2nnc(C(F)(F)F)n21 (stereo not drawn) [SOMCL-9112, 4-(4-fluoro-3-(5-methyl-3-(trifluoromethyl)-5,6,7,8-4H-[1,2,4]triazolo[4,3-a]piperazine-7-carbonyl)benzyl)phthalazin-1(2H)-one]
- Inhibitory effect on PARP [2]: significant inhibitory effect
- solubility at 8 h ([3]; pH 1.2, simulated gastric fluid): 10.5 µg/mL (≈ 21.6 µM)
- solubility at 8 h ([3]; pH 4.5, aqueous buffer): 18.9 µg/mL (≈ 38.9 µM)
- solubility at 8 h ([3]; pH 6.8, fassgf or other biorelevant): 15.4 µg/mL (≈ 31.7 µM)
- solubility at 8 h ([3]; water): 15.8 µg/mL (≈ 32.5 µM)
- solubility ([3]; fassgf or other biorelevant): ~10 µg/mL (≈ 20.6 µM)
- Papp A→B at 2 μM ([1]; Caco-2): 0.72 ×10⁻⁶ cm/s
- Papp A→B at 10 μM ([1]; Caco-2): 0.26 ± 0.03 ×10⁻⁶ cm/s
- Papp A→B at 50 μM ([1]; Caco-2): 0.34 ± 0.06 ×10⁻⁶ cm/s
- Papp B→A at 2 μM ([1]; Caco-2): 16.3 ± 0.34 ×10⁻⁶ cm/s
- Papp B→A at 10 μM ([1]; Caco-2): 16.1 ± 1.05 ×10⁻⁶ cm/s
- Papp B→A at 50 μM ([1]; Caco-2): 18.7 ± 0.28 ×10⁻⁶ cm/s
- Permeability characteristic (Caco-2 cell model): low permeability characteristic
- efflux ratio at 2 μM (P-gp; Caco-2): 22.6
- efflux ratio at 10 μM (P-gp; Caco-2): 61.9
- efflux ratio at 50 μM (P-gp; Caco-2): 54.5
- solubility thermodynamic ([4]; 37 °C, aqueous buffer, pH 1.2-6.8 buffer saline solution): < 100 µg/mL
- solubility thermodynamic at 24 h ([4]; aqueous buffer, pH 4.5 phosphate buffer): 18.6 µg/mL (≈ 38.2 µM)
- solubility thermodynamic at 24 h ([4]; fassgf or other biorelevant, pH 6.8 simulated intestinal fluid): 16.2 µg/mL (≈ 33.3 µM)
- solubility thermodynamic at 24 h ([4]; pH 1.2 simulated gastric fluid): 10.3 µg/mL (≈ 21.2 µM)
- solubility thermodynamic at 24 h ([4]; water): 14.8 µg/mL (≈ 30.4 µM)
